Experiments:
[1] = test system: Plasma; assay: Dose normalized plasma concentration in BALB/c mouse at 1 mg/kg, iv at 1 hr administered as bolus dose; assay type: ADME, organism-based; set-up: dose 1 mg/kg, route intravenous; details: in vivo
[2] = in vitro; details: mouse, liver microsomes
[3] = test system: Plasma; assay: Dose normalized plasma concentration in BALB/c mouse at 1 mg/kg, iv at 6 hrs administered as bolus dose; assay type: ADME, organism-based; set-up: dose 1 mg/kg, route intravenous; details: in vivo
[4] = Plasma concentration in BALB/c mouse at 10 mg/kg, po at 1 hr; assay type: ADME, organism-based; set-up: dose 10 mg/kg, route oral
[5] = molecular target: T1, Serine/threonine-protein kinase Chk1 (Homo sapiens, UniProt O14757)
T1 sequence (O14757 whole entry): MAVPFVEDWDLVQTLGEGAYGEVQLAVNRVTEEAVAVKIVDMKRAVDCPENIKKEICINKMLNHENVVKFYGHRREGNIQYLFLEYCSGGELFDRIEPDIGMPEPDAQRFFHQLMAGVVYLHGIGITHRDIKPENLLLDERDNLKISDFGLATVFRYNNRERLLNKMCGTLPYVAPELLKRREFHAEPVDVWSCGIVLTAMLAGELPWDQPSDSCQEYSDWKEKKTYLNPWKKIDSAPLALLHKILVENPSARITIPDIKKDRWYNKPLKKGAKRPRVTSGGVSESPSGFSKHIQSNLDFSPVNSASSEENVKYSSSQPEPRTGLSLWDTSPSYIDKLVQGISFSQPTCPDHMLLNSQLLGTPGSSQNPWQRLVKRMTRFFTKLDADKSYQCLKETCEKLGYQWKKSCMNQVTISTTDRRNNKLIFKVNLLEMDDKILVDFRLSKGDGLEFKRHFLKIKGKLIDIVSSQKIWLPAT

[6] = Plasma concentration in BALB/c mouse at 10 mg/kg, po at 6 hrs; assay type: ADME, organism-based; set-up: dose 10 mg/kg, route oral

For `CNc1cc(Nc2cnc(C#N)c(O[C@@H]3CCN(C)C3)n2)ncc1-c1cnn(C)c1`, the Cp/dose [1] was 320 nM, the metabolised at 0.5 h [2] was 17% and the Cp/dose [3] was < 20 nM. It also gave a concentration at 1 h [4] of 193 nM, an IC50 [5] of 4.4 nM and a concentration at 6 h [6] of 12 nM.
